Results taken from article PMC5938755 (Biochemistry, 2018).

Molecular target: phosphotriesterase from Sphingobium sp. TCM1 (Sb-PTE) (Sphingobium sp. TCM1, UniProt A0A077JBW9)
Test: steady-state kinetics, release of p-nitrophenol
Format: biochemical
Details: 50 mM HEPES/K+, pH 8.5, 30 °C; only aryl ester hydrolysis followed

SMILES | Km [µM]
COP(=O)(OC)Oc1ccc([N+](=O)[O-])cc1 [compound 3, dimethyl p-nitrophenyl phosphate] | 760 ± 50
CCOP(=O)(OCC)Oc1ccc([N+](=O)[O-])cc1 [compound 11, paraoxon] | 83 ± 9
